Article PMC12361428 (Nature Communications, 2025)
Changes are numbered by the printed parent chain. Values joined by “and” are separate entries in the source; they are usually repeats but may differ in a detail not shown here. Equal entries are not always repeated.

Legend:
Nluc-A3AR S271A^7.42 = target: T1, Nluc-A3AR S271A^7.42 (Homo sapiens, UniProt P0DMS8, S271A); experiment: biochemical; type: binding; conditions: S271A, read-out: normalised XAC-630 binding
T1 construct: expressed in transfected cells; host or cells: HEK293a
Method: (§1) All experiments were performed in duplicate.
(§2) Data were expressed as the mean ± standard error. All binding and Trupath data were analysed using the nonlinear regression curve-fitting programme with Prism 10 (GraphPad, San Diego, CA, USA). For nanoBRET saturation binding experiments, specific binding was calculated by subtracting non-specific binding (defined as binding in the presence of 10 µM MRS1220) from total binding. Specific binding data in each experiment were then normalised to the maximal binding (Bmax) of WT and fit to a one-site specific binding equation: Y =Bmax*[X]/(Kd + [X]). For nanoBRET competition binding experiments, data were normalised to total and non-specific binding responses and fit to a one-site—Fit Ki equation. […] Significant differences vs WT were determined by one-way ANOVA with a Dunnett’s multiple comparison test.

Nluc-A3AR S73A^2.65 = target: T2, Nluc-A3AR S73A^2.65 (Homo sapiens, UniProt P0DMS8, S73A); experiment: biochemical; type: binding; conditions: S73A, read-out: normalised XAC-630 binding
T2 construct: expressed in transfected cells; host or cells: HEK293a
Method: as §1, §2

Nluc-A3AR WT = target: T3, Nluc-A3AR WT (Homo sapiens, UniProt P0DMS8); experiment: biochemical; type: binding; conditions: WT, read-out: normalised XAC-630 binding
T3 construct: expressed in transfected cells; host or cells: HEK293a
Method: as §1, §2

Nluc-A3AR T94A^3.36 = target: T4, Nluc-A3AR T94A^3.36 (Homo sapiens, UniProt P0DMS8, T94A); experiment: biochemical; type: binding; conditions: T94A, read-out: normalised XAC-630 binding
T4 construct: expressed in transfected cells; host or cells: HEK293a
Method: as §1
(§3) Data were expressed as the mean ± standard error. All binding and Trupath data were analysed using the nonlinear regression curve-fitting programme with Prism 10 (GraphPad, San Diego, CA, USA). For nanoBRET saturation binding experiments, specific binding was calculated by subtracting non-specific binding (defined as binding in the presence of 10 µM MRS1220) from total binding. Specific binding data in each experiment were then normalised to the maximal binding (Bmax) of WT and fit to a one-site specific binding equation: Y =Bmax*[X]/(Kd + [X]). For nanoBRET competition binding experiments, data were normalised to total and non-specific binding responses and fit to a one-site—Fit Ki equation. Trupath's experimental data was baseline-corrected to the initial four baseline reads and then adjusted to the buffer control response. The area under the curve (AUC) for each response was calculated and plotted with a non-linear regression curve (log[agonist] vs response, three-parameter model), using the equation: Y = Bottom + (Top–Bottom)/(1 + 10^((LogEC50-X))). Here, X represents the log dose of the agonist, Y is the BRET2 AUC response, Top and Bottom are the curve plateaus, and EC50 is the agonist concentration yielding a response halfway between the Bottom and Top values. […] The efficacy of the agonists (τA) was separately calculated using the Black–Leff operational model of agonism[79] using KA values from Table 2 and then corrected for receptor expression relative to WT using Bmax values from Table 1[80]. Significant differences vs WT were determined by one-way ANOVA with a Dunnett’s multiple comparison test.

Nluc-A3AR Y15A^1.35 = target: T5, Nluc-A3AR Y15A^1.35 (Homo sapiens, UniProt P0DMS8, Y15A); experiment: biochemical; type: binding; conditions: Y15A; log[adenosine] -8; read-out: normalised XAC-630 binding
T5 construct: expressed in transfected cells; host or cells: HEK293a
Method: as §1, §3

A3AR H272A^7.43 = target: T6, A3AR H272A^7.43 (Homo sapiens, UniProt P0DMS8, H272A); experiment: Gαi1 activation, TruPath BRET assay in HEK293a cells; type: cell-based
T6 construct: expressed in transfected cells; host or cells: HEK293a
T6 sequence (P0DMS8 1-318 H272A): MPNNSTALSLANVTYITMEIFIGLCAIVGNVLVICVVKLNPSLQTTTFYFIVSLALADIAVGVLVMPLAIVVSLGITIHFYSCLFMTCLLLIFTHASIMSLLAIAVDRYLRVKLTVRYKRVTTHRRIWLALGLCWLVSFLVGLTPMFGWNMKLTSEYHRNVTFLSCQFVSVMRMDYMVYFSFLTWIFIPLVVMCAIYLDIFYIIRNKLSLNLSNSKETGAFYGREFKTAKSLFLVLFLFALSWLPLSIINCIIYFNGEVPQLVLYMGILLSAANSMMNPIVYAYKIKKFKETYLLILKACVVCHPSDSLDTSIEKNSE
Method: (§4) PEI was added at a 6:1 PEI-to-DNA ratio. Two days post-transfection, plates were washed twice with BRET buffer (HBSS with 10 mM HEPES, pH 7.4). After a 30-min incubation at 37 °C, plates were placed in a PHERAstar plate reader at 37 °C, and four baseline readings were taken using BRET2 filters at 410 ± 80 nm and 515 ± 30 nm. […] BRET2 ratios were calculated as the ratio of GFP2 emission (515 ± 30 nm) to RLuc8 emission (410 ± 80 nm).
(§5) Data were expressed as the mean ± standard error. All binding and Trupath data were analysed using the nonlinear regression curve-fitting programme with Prism 10 (GraphPad, San Diego, CA, USA). For nanoBRET saturation binding experiments, specific binding was calculated by subtracting non-specific binding (defined as binding in the presence of 10 µM MRS1220) from total binding. Specific binding data in each experiment were then normalised to the maximal binding (Bmax) of WT and fit to a one-site specific binding equation: Y =Bmax*[X]/(Kd + [X]). For nanoBRET competition binding experiments, data were normalised to total and non-specific binding responses and fit to a one-site—Fit Ki equation. Trupath's experimental data was baseline-corrected to the initial four baseline reads and then adjusted to the buffer control response. The area under the curve (AUC) for each response was calculated and plotted with a non-linear regression curve (log[agonist] vs response, three-parameter model), using the equation: Y = Bottom + (Top–Bottom)/(1 + 10^((LogEC50-X))). Here, X represents the log dose of the agonist, Y is the BRET2 AUC response, Top and Bottom are the curve plateaus, and EC50 is the agonist concentration yielding a response halfway between the Bottom and Top values. To determine efficacy values. The efficacy of the agonists (τA) was separately calculated using the Black–Leff operational model of agonism[79] using KA values from Table 2 and then corrected for receptor expression relative to WT using Bmax values from Table 1[80]. Significant differences vs WT were determined by one-way ANOVA with a Dunnett’s multiple comparison test. Significance levels are indicated as follows: P ≤ 0.0001****, P = 0.0001–0.001***, P = 0.001–0.01**, and P = 0.01–0.05*.

Nluc-A3AR H95A^3.37 = target: T7, Nluc-A3AR H95A^3.37 (Homo sapiens, UniProt P0DMS8, H95A); experiment: biochemical; type: binding; conditions: H95A, read-out: normalised XAC-630 binding
T7 construct: expressed in transfected cells; host or cells: HEK293a
Method: as §1
(§6) Data were expressed as the mean ± standard error. All binding and Trupath data were analysed using the nonlinear regression curve-fitting programme with Prism 10 (GraphPad, San Diego, CA, USA). For nanoBRET saturation binding experiments, specific binding was calculated by subtracting non-specific binding (defined as binding in the presence of 10 µM MRS1220) from total binding. Specific binding data in each experiment were then normalised to the maximal binding (Bmax) of WT and fit to a one-site specific binding equation: Y =Bmax*[X]/(Kd + [X]). For nanoBRET competition binding experiments, data were normalised to total and non-specific binding responses and fit to a one-site—Fit Ki equation. Trupath's experimental data was baseline-corrected to the initial four baseline reads and then adjusted to the buffer control response. The area under the curve (AUC) for each response was calculated and plotted with a non-linear regression curve (log[agonist] vs response, three-parameter model), using the equation: Y = Bottom + (Top–Bottom)/(1 + 10^((LogEC50-X))). Here, X represents the log dose of the agonist, Y is the BRET2 AUC response, Top and Bottom are the curve plateaus, and EC50 is the agonist concentration yielding a response halfway between the Bottom and Top values. […] Significant differences vs WT were determined by one-way ANOVA with a Dunnett’s multiple comparison test. Significance levels are indicated as follows: P ≤ 0.0001****, P = 0.0001–0.001***, P = 0.001–0.01**, and P = 0.01–0.05*.

A3AR WT = target: T8, A3AR WT (Homo sapiens, UniProt P0DMS8); experiment: Gαi1 activation, TruPath BRET assay in HEK293a cells; type: cell-based
T8 construct: expressed in transfected cells; host or cells: HEK293a
T8 sequence (P0DMS8 1-318): T6 sequence (P0DMS8 1-318 H272A) with A272H
Method: as §4, §5

Nluc-A3AR M174A^5.35 = target: T9, Nluc-A3AR M174A^5.35 (Homo sapiens, UniProt P0DMS8, M174A); experiment: biochemical; type: binding; conditions: M174A, read-out: normalised XAC-630 binding
T9 construct: expressed in transfected cells; host or cells: HEK293a
Method: as §1, §3

A3AR T94A^3.36 = target: T10, A3AR T94A^3.36 (Homo sapiens, UniProt P0DMS8, T94A); experiment: Gαi1 activation, TruPath BRET assay in HEK293a cells; type: cell-based
T10 construct: expressed in transfected cells; host or cells: HEK293a
Method: PEI was added at a 6:1 PEI-to-DNA ratio.
Data were expressed as the mean ± standard error. All binding and Trupath data were analysed using the nonlinear regression curve-fitting programme with Prism 10 (GraphPad, San Diego, CA, USA). For nanoBRET saturation binding experiments, specific binding was calculated by subtracting non-specific binding (defined as binding in the presence of 10 µM MRS1220) from total binding. Specific binding data in each experiment were then normalised to the maximal binding (Bmax) of WT and fit to a one-site specific binding equation: Y =Bmax*[X]/(Kd + [X]). For nanoBRET competition binding experiments, data were normalised to total and non-specific binding responses and fit to a one-site—Fit Ki equation. Trupath's experimental data was baseline-corrected to the initial four baseline reads and then adjusted to the buffer control response. The area under the curve (AUC) for each response was calculated and plotted with a non-linear regression curve (log[agonist] vs response, three-parameter model), using the equation: Y = Bottom + (Top–Bottom)/(1 + 10^((LogEC50-X))). […] Significant differences vs WT were determined by one-way ANOVA with a Dunnett’s multiple comparison test. […]

Nluc-A3AR V169E^45.53 = target: T11, Nluc-A3AR V169E^45.53 (Homo sapiens, UniProt P0DMS8, V169E); experiment: biochemical; type: binding; conditions: V169E, read-out: normalised XAC-630 binding
T11 construct: expressed in transfected cells; host or cells: HEK293a
Method: as §1, §6

Nluc-A3AR Y265A^7.36 = target: T12, Nluc-A3AR Y265A^7.36 (Homo sapiens, UniProt P0DMS8, Y265A); experiment: biochemical; type: binding; conditions: Y265A, read-out: normalised XAC-630 binding
T12 construct: expressed in transfected cells; host or cells: HEK293a
Method: as §1, §3

A3AR S271A^7.42 = A3AR S271A^7.42 (Homo sapiens, UniProt P0DMS8, S271A); experiment: Gαi1 activation, TruPath BRET assay in HEK293a cells
Method: (§7) Two days post-transfection, plates were washed twice with BRET buffer (HBSS with 10 mM HEPES, pH 7.4). After a 30-min incubation at 37 °C, plates were placed in a PHERAstar plate reader at 37 °C, and four baseline readings were taken using BRET2 filters at 410 ± 80 nm and 515 ± 30 nm. […] BRET2 ratios were calculated as the ratio of GFP2 emission (515 ± 30 nm) to RLuc8 emission (410 ± 80 nm).
(§8) Data were expressed as the mean ± standard error. All binding and Trupath data were analysed using the nonlinear regression curve-fitting programme with Prism 10 (GraphPad, San Diego, CA, USA). […] Trupath's experimental data was baseline-corrected to the initial four baseline reads and then adjusted to the buffer control response. The area under the curve (AUC) for each response was calculated and plotted with a non-linear regression curve (log[agonist] vs response, three-parameter model), using the equation: Y = Bottom + (Top–Bottom)/(1 + 10^((LogEC50-X))). Here, X represents the log dose of the agonist, Y is the BRET2 AUC response, Top and Bottom are the curve plateaus, and EC50 is the agonist concentration yielding a response halfway between the Bottom and Top values. […] Significant differences vs WT were determined by one-way ANOVA with a Dunnett’s multiple comparison test.

A3AR H95A^3.37 = A3AR H95A^3.37 (Homo sapiens, UniProt P0DMS8, H95A); experiment: as above
Method: as §7, §8

Nluc-A3AR H95F^3.37 = target: T13, Nluc-A3AR H95F^3.37 (Homo sapiens, UniProt P0DMS8, H95F); experiment: biochemical; type: binding; conditions: H95F; log[adenosine] -8; read-out: normalised XAC-630 binding
T13 construct: expressed in transfected cells; host or cells: HEK293a
T13 sequence (P0DMS8 whole entry H95F): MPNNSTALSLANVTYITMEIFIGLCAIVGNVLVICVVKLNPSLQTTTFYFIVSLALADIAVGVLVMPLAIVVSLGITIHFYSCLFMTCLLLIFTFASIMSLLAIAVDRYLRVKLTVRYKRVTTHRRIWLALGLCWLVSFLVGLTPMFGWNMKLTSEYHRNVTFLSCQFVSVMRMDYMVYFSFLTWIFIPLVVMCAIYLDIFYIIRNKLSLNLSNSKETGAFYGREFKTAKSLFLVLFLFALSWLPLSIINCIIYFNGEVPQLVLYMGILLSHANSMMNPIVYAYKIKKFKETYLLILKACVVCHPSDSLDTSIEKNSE
Method: as §1, §6

T12 sequence (P0DMS8 whole entry Y265A): as the sequence (P0DMS8 whole entry H95F) above, with F95H, Y265A counted along it
T1 sequence (P0DMS8 whole entry S271A): as the sequence (P0DMS8 whole entry H95F) above, with F95H, S271A counted along it
T7 sequence (P0DMS8 whole entry H95A): as the sequence (P0DMS8 whole entry H95F) above, with F95A counted along it
T2 sequence (P0DMS8 whole entry S73A): as the sequence (P0DMS8 whole entry H95F) above, with S73A, F95H counted along it
T11 sequence (P0DMS8 whole entry V169E): as the sequence (P0DMS8 whole entry H95F) above, with F95H, V169E counted along it
T3 sequence (P0DMS8 whole entry): as the sequence (P0DMS8 whole entry H95F) above, with F95H counted along it
T4 sequence (P0DMS8 whole entry T94A): as the sequence (P0DMS8 whole entry H95F) above, with T94A, F95H counted along it
T9 sequence (P0DMS8 whole entry M174A): as the sequence (P0DMS8 whole entry H95F) above, with F95H, M174A counted along it
A3AR H95A^3.37, sequence (P0DMS8 whole entry H95A): as the sequence (P0DMS8 whole entry H95F) above, with F95A counted along it
T10 sequence (P0DMS8 whole entry T94A): as the sequence (P0DMS8 whole entry H95F) above, with T94A, F95H counted along it
T5 sequence (P0DMS8 whole entry Y15A): as the sequence (P0DMS8 whole entry H95F) above, with Y15A, F95H counted along it
A3AR S271A^7.42, sequence (P0DMS8 whole entry S271A): as the sequence (P0DMS8 whole entry H95F) above, with F95H, S271A counted along it

Nc1ncnc2c1ncn2[C@@H]1O[C@H](CO)[C@@H](O)[C@H]1O [Adenosine, adenosine]
remaining activity at 1000 µM (Nluc-A3AR S271A^7.42; log[adenosine] -3): 90.4% | remaining activity at 100 µM (Nluc-A3AR S271A^7.42; log[adenosine] -4): 102% | remaining activity at 10 µM (Nluc-A3AR S271A^7.42; log[adenosine] -5): 100% | remaining activity at 1 µM (Nluc-A3AR S271A^7.42; log[adenosine] -6): 104% | remaining activity at 0.1 µM (Nluc-A3AR S271A^7.42; log[adenosine] -7): 105% | remaining activity at 0.01 µM (Nluc-A3AR S271A^7.42; log[adenosine] -8): 100% | remaining activity at 10 µM (Nluc-A3AR S73A^2.65; log[adenosine] -5): 82.6% | remaining activity at 1 µM (Nluc-A3AR S73A^2.65; log[adenosine] -6): 100% | remaining activity at 0.1 µM (Nluc-A3AR S73A^2.65; log[adenosine] -7): 100% | remaining activity at 0.01 µM (Nluc-A3AR S73A^2.65; log[adenosine] -8): 100% | remaining activity at 1 µM (Nluc-A3AR WT; log[adenosine] -6): 103% | remaining activity at 0.1 µM (Nluc-A3AR WT; log[adenosine] -7): 102% | remaining activity at 0.01 µM (Nluc-A3AR WT; log[adenosine] -8): 100% | remaining activity at 1 µM (Nluc-A3AR T94A^3.36; log[adenosine] -6): 100% | remaining activity at 0.1 µM (Nluc-A3AR T94A^3.36; log[adenosine] -7): 103% | remaining activity at 0.01 µM (Nluc-A3AR T94A^3.36; log[adenosine] -8): 100% | remaining activity at 0.01 µM (Nluc-A3AR Y15A^1.35): 100% | log τ (efficacy, operational model, corrected for receptor expression) (A3AR H272A^7.43): N.R. | ∆∆BRET Emax (A3AR H272A^7.43): N.R | Gαi1 activation response (Figure 7F), individual replicates (A3AR H272A^7.43; log [agonist] -3): 0.105 and 0.09941 | Gαi1 activation response (Figure 7F), individual replicates (A3AR H272A^7.43; log [agonist] -4): 0.06736 and 0.02567 and 0.03084 | Gαi1 activation response (Figure 7F), individual replicates (A3AR H272A^7.43; log [agonist] -5): 0.05631 and 0.02851 and 0.01939 | Gαi1 activation response (Figure 7F), individual replicates (A3AR H272A^7.43; log [agonist] -6): 0.03915 and 0.06464 and 0.04347 | Gαi1 activation response (Figure 7F), individual replicates (A3AR H272A^7.43; log [agonist] -7): 0.04202 and 0.01796 and 0.03024 | Gαi1 activation response (Figure 7F), individual replicates (A3AR H272A^7.43; log [agonist] -8): 0.03672 and 0.03614 and 0.07396 | Gαi1 activation response (Figure 7F), individual replicates (A3AR H272A^7.43; log [agonist] -9): 0.03473 and 0.04344 and 0.05169 | remaining activity at 1000 µM (Nluc-A3AR H95A^3.37; log[adenosine] -3): 24% | remaining activity at 100 µM (Nluc-A3AR H95A^3.37; log[adenosine] -4): 82.5% | remaining activity at 10 µM (Nluc-A3AR H95A^3.37; log[adenosine] -5): 97.8% | remaining activity at 1 µM (Nluc-A3AR H95A^3.37; log[adenosine] -6): 105% | remaining activity at 0.1 µM (Nluc-A3AR H95A^3.37; log[adenosine] -7): 95.8% | remaining activity at 0.01 µM (Nluc-A3AR H95A^3.37; log[adenosine] -8): 100% | log τ (efficacy, operational model, corrected for receptor expression) (A3AR WT): 1.6 ± 0.2 | ∆∆BRET Emax (A3AR WT): 0.89 ± 0.08 | Gαi1 activation response (Figure 7F), individual replicates (A3AR WT; log [agonist] -3): 1.106 and 0.8834 and 0.9675 | Gαi1 activation response (Figure 7F), individual replicates (A3AR WT; log [agonist] -4): 0.9524 and 0.7958 and 0.9068 | Gαi1 activation response (Figure 7F), individual replicates (A3AR WT; log [agonist] -5): 0.9676 and 0.6508 and 0.8035 | Gαi1 activation response (Figure 7F), individual replicates (A3AR WT; log [agonist] -6): 0.8382 and 0.5159 and 0.6976 | Gαi1 activation response (Figure 7F), individual replicates (A3AR WT; log [agonist] -7): 0.312 and 0.3966 and 0.3849 | Gαi1 activation response (Figure 7F), individual replicates (A3AR WT; log [agonist] -8): 0.0509 and 0.08839 and 0.07483 | Gαi1 activation response (Figure 7F), individual replicates (A3AR WT; log [agonist] -9): 0.1 and 0.05123 and 0.04435 | remaining activity at 1 µM (Nluc-A3AR M174A^5.35; log[adenosine] -6): 100% | remaining activity at 0.01 µM (Nluc-A3AR M174A^5.35; log[adenosine] -8): 101% | log τ (efficacy, operational model, corrected for receptor expression) (A3AR T94A^3.36): 0.8 ± 0.09 | ∆∆BRET Emax (A3AR T94A^3.36): 0.49 ± 0.04 | remaining activity at 100 µM (Nluc-A3AR V169E^45.53; log[adenosine] -4): 37.3% | remaining activity at 10 µM (Nluc-A3AR V169E^45.53; log[adenosine] -5): 78.7% | remaining activity at 1 µM (Nluc-A3AR V169E^45.53; log[adenosine] -6): 98% | remaining activity at 0.1 µM (Nluc-A3AR V169E^45.53; log[adenosine] -7): 95.5% | remaining activity at 0.01 µM (Nluc-A3AR V169E^45.53; log[adenosine] -8): 100% | remaining activity at 100 µM (Nluc-A3AR Y265A^7.36; log[adenosine] -4): 69.6% | remaining activity at 10 µM (Nluc-A3AR Y265A^7.36; log[adenosine] -5): 94.1% | remaining activity at 1 µM (Nluc-A3AR Y265A^7.36; log[adenosine] -6): 97.4% | remaining activity at 0.1 µM (Nluc-A3AR Y265A^7.36; log[adenosine] -7): 99.2% | remaining activity at 0.01 µM (Nluc-A3AR Y265A^7.36; log[adenosine] -8): 100% | ∆∆BRET Emax (A3AR S271A^7.42): 0.70 ± 0.15 | log τ (efficacy, operational model, corrected for receptor expression) (A3AR H95A^3.37): 0.3 ± 0.3 | ∆∆BRET Emax (A3AR H95A^3.37): 0.63 ± 0.12 | remaining activity at 0.01 µM (Nluc-A3AR H95F^3.37): 100%
